Measured values reported in patent US7473690B2, “Tetralin and indane derivatives and uses thereof” (Roche Palo Alto LLC, priority 2004, dated 2009).

Assays:
[1] = target: T1, recombinant human 5-HT6 receptor (Homo sapiens, UniProt P50406); assay: Radioligand binding, [3H]LSD competition, 5-HT6; details: [3H]LSD displacement, membranes of HEK293 cells, pH 7.4, 37° C.; read-out: pKi for 5-HT6 (converted)
T1 construct: expressed in transfected cells; membranes)
Procedure: (§1) The binding activity of compounds of this invention in vitro was determined as follows. Duplicate determinations of 5-HT6 ligand affinity were made by competing for binding of [^3H]LSD in cell membranes derived from HEK293 cells stably expressing recombinant human 5-HT6 receptor. Duplicate determinations of 5-HT2A ligand affinity were made by competing for binding of [^3H]Ketanserin (3-(2-(4-(4-fluorobenzoyl)piperidinol)ethyl)-2,4(1H,3H)-quinazolinedione) in cell membranes derived from CHO-K1 cells stably expressing recombinant human 5-HT2A receptor. Membranes were prepared from HEK 293 cell lines by the method described by Monsma et al., Molecular Pharmacology, Vol. 43 pp. 320-327 (1993), and from CHO-K1 cell lines as described by Bonhaus et al., Br J Pharmacol. Jun; 115 (4):622-8 (1995).
(§2) For estimation of affinity at the 5-HT6 receptor, all determinations were made in assay buffer containing 50 mM Tris-HCl, 10 mM MgSO4, 0.5 mM EDTA, 1 mM ascorbic acid, pH 7.4 at 37° C., in a 250 microliter reaction volume. […]
(§3) Assay tubes containing [^3H] […] LSD or [^3H]Ketanserin were determined as radioactive counts per minute using Packard TopCount.
(§4) Displacement of [^3H]LSD or [^3H]Ketanserin from the binding sites was quantified by fitting concentration-binding data to a 4-parameter logistic equation: […]

[2] = target: T2, recombinant human 5-HT2A receptor (Homo sapiens, UniProt P28223); assay: Radioligand binding, [3H]Ketanserin competition, 5-HT2A; details: [3H]Ketanserin displacement, membranes of CHO-K1 cells, pH 7.4, 32° C.; read-out: pKi for 5-HT2A (converted)
T2 construct: expressed in transfected cells; membranes)
Procedure: as §1, §2, §3, §4

T2 sequence (P28223 whole entry): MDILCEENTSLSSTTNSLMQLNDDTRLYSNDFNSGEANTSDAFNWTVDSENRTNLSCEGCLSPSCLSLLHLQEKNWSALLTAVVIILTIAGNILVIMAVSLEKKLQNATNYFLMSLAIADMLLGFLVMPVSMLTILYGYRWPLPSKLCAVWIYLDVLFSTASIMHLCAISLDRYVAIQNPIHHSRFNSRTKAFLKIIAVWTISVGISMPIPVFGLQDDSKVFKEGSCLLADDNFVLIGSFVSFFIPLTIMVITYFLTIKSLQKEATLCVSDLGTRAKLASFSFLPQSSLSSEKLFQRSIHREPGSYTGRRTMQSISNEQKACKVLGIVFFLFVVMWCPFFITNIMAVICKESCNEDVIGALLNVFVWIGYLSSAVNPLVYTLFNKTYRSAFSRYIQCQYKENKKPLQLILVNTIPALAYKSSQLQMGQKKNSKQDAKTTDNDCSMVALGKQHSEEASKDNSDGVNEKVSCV
T1 sequence (P50406 whole entry): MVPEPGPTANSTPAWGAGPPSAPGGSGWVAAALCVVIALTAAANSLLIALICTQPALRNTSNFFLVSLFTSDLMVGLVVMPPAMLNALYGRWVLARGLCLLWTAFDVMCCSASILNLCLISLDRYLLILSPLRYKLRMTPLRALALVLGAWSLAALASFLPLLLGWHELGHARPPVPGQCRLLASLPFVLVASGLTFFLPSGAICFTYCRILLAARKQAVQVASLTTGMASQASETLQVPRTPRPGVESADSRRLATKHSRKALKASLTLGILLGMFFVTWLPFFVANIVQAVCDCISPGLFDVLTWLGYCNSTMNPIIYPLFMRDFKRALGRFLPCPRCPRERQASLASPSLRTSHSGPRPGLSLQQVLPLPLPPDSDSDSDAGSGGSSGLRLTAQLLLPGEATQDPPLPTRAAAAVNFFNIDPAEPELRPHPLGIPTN

Ki [1]: ~0.302 nM | Ki [2]: ~17.4 nM
SMILES: CN1CCN(C2CCCc3cc(S(=O)(=O)c4ccccc4)ccc32)CC1 (centres unmarked) [Compound 11, 1-(6-Benzenesulfonyl-1,2,3,4-tetrahydro-naphthalen-1-yl)-4-methyl-piperazine]
